# Test system: U937 cells expressing PML-RARA (PR9)
# Test: CD14 expression by flow cytometry, PR9 cells with zinc
# Type: cell-based, human
# Settings: paricalcitol 0.01 μM; 3 days; compared to PR9 without zinc
# Experimental: (A) NB-4 myeloid leukemia cell lines were treated with paricalcitol (0.1 μM) and/or arsenic trioxide (0.6 μM) for 3 days. Control cells were treated with vehicle alone. Cell lysates were made and used for Western blot which was probed sequentially with antibodies to RARA to detect the fusion protein PML-RARα. (B) U937 cells were stably transfected with either the control MT vector (U937-PMT) or the PML-RARα cDNA under the control of the Zn2^+-inducible murine metallothionein 1 promoter (PR9). Cells were treated either with (+) or without (−) Zn for 2 days. Paricalcitol and/or arsenic trioxide of the indicated doses were added to the cells. Cell lysates were harvested and used for Western blot which was probed with antibodies to RARα to detect PML-RARα fusion protein ([…]). (C) U937-PMT and PR9 cells were treated either with or without Zn and with paricalcitol, and/or arsenic trioxide as indicated for 3 days, and CD14 expression was measured by flow cytometry.
# Cell lines used in this study were obtained from American Type Culture Collection (Rockville, Md.) and were maintained according to their recommendations. Myeloid leukemia cell lines (HL-60, NB-4, THP-1, U937), lymphoma cell lines (Raji, Ramos, Daudi, Jurkat, Jeko-1, JUDHL), myeloma cell lines (RPMI-8226, ARH-77, NCI-H929), ovarian cancer cell lines and PC-3 prostate cell line were grown in RPMI 1640 with 10% FCS. […]
structure (smiles),measurement,value
"C[C@H](/C=C/[C@H](C)C(C)(C)O)[C@H]1CC[C@H]2/C(=C/C=C3C[C@@H](O)C[C@H](O)C3)CCC[C@]12C [paricalcitol, 19-nor-1,25, (OH)2D3]",differentiation (CD14) of PR9 cells cultured with zinc,partially blocked
